This passage reports melting point results from a melting point compilation (Tetko et al.; mined from patent text by program, amines drawn as free bases though some values may be those of a salt).

By melting point is commonly meant the temperature, or range, at which the solid turns liquid. As to `Cc1nc(N2CCN(Cc3ccc(Cl)cc3)C2=O)sc1C(=O)NCc1cccnc1`, the melting point lay within 178 to 179 °C. Regarding `Fc1ccc2c(c1)nc(Cl)c1nnc(C(F)(F)F)n12`, the melting point is 135 to 138 °C. `CC(=O)C1CCC(=O)N1C(C)=O` (centres undefined) registered a melting point of 62 °C. `CCCCCCCCCCc1cc2c(s1)-n1c(C)nnc1CN=C2c1ccccc1OC`: the melting point was in the range of 90 to 92 °C. Next, `CN1CCN(c2ccc3c(=O)c(C(=O)O)cn4c3c2CCC4)CC1`: 278 to 280 °C.

On to `COC(=O)CCCCNC(=O)C(CS)Cc1ccccc1` (centres undefined), for which the melting point was 39 to 41 °C. In the case of `O=C1CNc2ncc(I)cc2N1Cc1ccc(C(F)(F)F)o1`, the melting point was in the range of 189 to 191 °C.

`COc1cc(C)c(N)c(C)c1C` had a melting point of 70 to 72 °C.

The molecule `CCc1ccc(NCc2cc(OC)c(OC)c(OC)c2)cc1` returned a melting point of 64 to 66 °C. With `Cn1nnnc1Cc1ccc(NC(=O)/C=C/c2cnn(C)c2-c2ccc(F)cc2)cc1`, the melting point was in the range of 243 to 244 °C. `COc1ccc(CNc2c(-c3cc(Cl)ccc3O)c3cc(C(F)(F)F)ccc3[nH]c2=O)cc1`: the melting point was in the range of 103 to 106 °C.

Take `Cc1oc(-c2ccc(C(F)(F)F)cc2)nc1COc1cccc(CN(O)C(N)=O)c1`: the melting point fell in the range of 125 to 126 °C. In turn, `CCOC(=O)C1=C(C)NC(=S)N(C(=O)c2ccc(OC)cc2)C1c1cccc([N+](=O)[O-])c1` (centres undefined) returned a melting point of 130 to 132 °C.

Molecule `CC1=C(c2ccncc2Cl)SCC(=O)N1` returned a melting point of 169 to 171 °C.

`Cc1ccc(NC(=O)c2cccc(N3CCOCC3)c2)cc1NC(=O)c1cccc(OC2CCNCC2)c1` gave a melting point of 162 to 166 °C. As for `COc1ccccc1-c1cc(F)cc2c1NC(CN)CO2` (centres undefined), the figure is 84 °C; as for `Clc1ccc(N(Cc2ccccc2)c2ccccc2)cc1`, 94 to 95 °C; as for `CSc1noc(C2CC2)c1C(=O)c1ccc(C(F)(F)F)nc1C`, 103 to 104 °C.

`CCOCc1nc2c(N)nc3ccccc3c2n1CCCCS(=O)(=O)N(C)C`: the melting point lay within 173 to 174 °C. Turning to `COc1ccc(C(=O)Nc2cc(-c3c(-c4ccc(F)c(C)c4)nc4cccnn34)ccn2)cc1`, the melting point lay in the range of 222 to 223 °C. In turn, `O=C1CC(c2cccc(-n3ccnc3)c2)=Nc2ccc(-c3ccccc3)cc2N1` displayed a melting point of 201 to 205 °C. `O=C1CC(c2ccc(F)cc2)c2ccc(F)cc21` (centres undefined): the melting point lay within 70 to 73 °C. `COc1ccccc1OC1CCN(c2nc(-c3ccccc3)nc3ccccc23)C1` (centres undefined) yielded a melting point of 142 to 144 °C. `CCCCCCCCCCCCOc1ccc(C(=O)c2ccc(Sc3ccccc3)cc2)c(O)c1`: the melting point was in the range of 59 to 60 °C. `N#CNC(=Nc1ccccc1)NCCNCC(O)COc1ccccc1C#N` (centres undefined) had a melting point of 146 to 147 °C. As for `Fc1cc(F)c2[nH]c3c(c2c1)CC(N1CCCCC1)CC3` (centres undefined), the melting point is greater than 290 °C. `COc1ccc(-c2nc(C)c(C(C)=O)[nH]2)cc1` had a melting point of 162 to 165 °C.

As for `CC1(C)Oc2ccncc2[C@@H](N2CCCC2=O)[C@@H]1O` (relative stereo), the melting point is 253 °C. As for `COC(=O)c1ccc(CNc2cc(-c3cc4cc(F)c(F)cc4[nH]3)ccc2OC)cc1`, the figure is 168 to 170 °C; as for `O=C(OC1CCCCC1)c1ccc(Cl)c([N+](=O)[O-])c1`, 57 to 58 °C; as for `CS(=O)(=O)OCCCOC(=O)c1[nH]c(-c2ccccc2)c2cc(Cl)ccc12`, 155 to 158 °C.

Molecule `CCC(CC)(OCc1oc(-c2ccc(Cl)cc2)nc1C)C(=O)O` gave a melting point of 157 °C.

`CS(=O)(=O)N1CCN(c2ccc3c(c2)N2CCN=C2C(c2ccccc2)=[N+]3[O-])CC1` yielded a melting point of 252 to 253 °C. Regarding `O=C1NC(=O)C(Cc2ccc(OCCn3ccc4cccnc43)cc2)S1` (centres undefined), the melting point was in the range of 200 to 202 °C. Next, `Nc1ccnc(CCCCCN2C(=O)c3ccccc3C2=O)n1`: 101 to 104 °C; `C=C(c1ccc(-c2cc[nH]n2)cc1)C(O)(Cn1cncn1)c1ccc(F)cc1F` (centres undefined): 182 to 184 °C. The molecule `Cc1ccc(C(C)(C)C)c(SC2=C(O)CC(CCc3ccccc3)(c3ccc(OCCN4CCNCC4)cc3)OC2=O)c1` (centres undefined) came in with a melting point of 175 °C. `Cc1c(C(=O)NN2CCCCC2)nn(-c2ccc(Cl)cc2Cl)c1-c1ccc(Cl)cc1`: the melting point was 148 °C. `Nc1cc(-c2ccccn2)cc2nc(-c3ccccc3)nn12` showed a melting point of 278 to 280 °C. For the molecule `CCCCCCCCCCCCCCCCSCC(O)CO` (centres undefined), the melting point was in the range of 72 to 74 °C. For the molecule `C[C@@H](N1CCN(c2ccc(-n3cnn(Cc4ccc(C(F)(F)F)cc4C(F)(F)F)c3=O)cc2)CC1)[C@](O)(Cn1cncn1)c1ccc(F)cc1F`, the melting point lay in the range of 146 to 148 °C. `CN(C)c1ccc(-c2nnc(N3CCC(O)CC3)nc2-c2ccc(N(C)C)cc2)cc1` returned a melting point of 186 to 188 °C. As for `O=C(CN1c2ccccc2Cn2c1nc(-c1ccncn1)cc2=O)c1ccccc1`, the figure is 263 to 265 °C; as for `Cn1c2ccccc2c(=NN=C2NCCS2)c2c(Cl)cccc21`, 206 to 207 °C.

`O=C(CSc1ccncc1)C12CC3CC(CC(C3)C1)C2`: the melting point lay within 114 to 115 °C.

`CN=C1N(C)C(=O)CN1c1ccc(Cl)cc1` returned a melting point of 150 to 152 °C. Consider `CSc1nc2ccnn2c(N)c1C#N`, for which the melting point is greater than 240 °C.

As to `O=C1CNCCN1CCc1ccccc1`, the melting point was in the range of 75 to 78 °C.

`CS(=O)(=O)Oc1ccc(-c2cc3ccc(OS(C)(=O)=O)cc3s2)cc1` registered a melting point of 195 to 197 °C.

`O=C(NC(=O)C(c1ccccc1)c1ccccc1)OCCCc1ccncc1` came in with a melting point of 147 to 150 °C. In turn, `C[Si](C)(C)NS(=O)(=O)c1ccccc1` yielded a melting point of 62 to 63 °C. The molecule `CC(C)(O)c1cccn2c(-c3ccnc(NC4CCC(C(=O)N5CCC(O)CC5)CC4)n3)cnc12` (centres undefined) showed a melting point of 188 to 190 °C. For the molecule `O=C(Nc1ccc(NC(=O)OCCCl)c([N+](=O)[O-])n1)OCCCl`, the melting point is 118 to 119 °C. As for `OCc1ccc2c(c1)ncn2Cc1ccccc1`, the figure is 148 to 150 °C. Molecule `CCOC(=O)OC12Oc3cc(C(C)C)ccc3C1(OC(=O)OCC)C(=O)c1ccccc12` (centres undefined) registered a melting point of 150 to 153 °C. Take `CC(C)(Cl)CC(N)C(=O)NC(C(=O)Nc1ccccc1)C(=O)c1ccccc1` (centres undefined): the melting point is 145 to 147 °C. `O=C(CC1CCN(Cc2ccccc2)CC1)c1ccc(N2CCCC2)cc1` registered a melting point of 110 to 112 °C. The molecule `O=C(O)c1nn(-c2ccc(Cl)cc2Cl)c2c1CCc1cc(C(F)(F)F)ccc1-2` had a melting point of 245 °C. In turn, `C=CC(=O)NCCCCCCCCCCCCCCCCCC` returned a melting point of 75 to 77 °C. In turn, `C#CC1(Oc2ccc(F)cc2N)CCN(C(=O)Oc2ccccc2)CC1` registered a melting point of 125 to 127 °C. As for `CCC(CC)c1ccc(Cl)c2nc(Nc3cc(Cl)cc(Cl)c3)n(CCCCO)c12`, the figure is 208 to 210 °C.

`CN1CC(CCCl)Cc2ncccc2C1=S` (centres undefined) registered a melting point of 110 to 120 °C. The molecule `Clc1ccc(-c2cc3nc(N4CCOCC4)c4ccccc4c3nn2)cc1` had a melting point of 244 to 246 °C.

`CNC(=O)N1CC(Oc2cccc(Cl)c2)C1`: the melting point is 140 to 141 °C. In turn, `N#Cc1cc2c(s1)-c1ccccc1OC2c1ccccc1` (centres undefined) came in with a melting point of 138 to 140 °C. In the case of `COCC(C)OC(=O)C(=O)Nc1nc(-c2ccccc2)cs1` (centres undefined), the melting point lay within 152 to 155 °C. `CCOC(=O)c1cn(CC)c2cc(-c3cc(C)nc(C)c3)c(F)cc2c1=O` showed a melting point of 221 to 224 °C. With `CCOC(=O)/C=C/c1cnn(Cc2ccc(OCc3nc(-c4ccccc4)oc3C)cc2)c1`, the melting point lay within 112 to 113 °C. `CCCCc1c(-c2ccncc2)[nH]c(-c2ccncc2)c1C(=O)OCC` registered a melting point of 256 to 258 °C. `Cc1ccc(-c2cccc(/C=C/C(=O)Nc3ccc(CN4CCCC(O)C4)cc3)c2)cc1` (centres undefined) registered a melting point of 132 to 134 °C. For the molecule `Cc1cc(=O)c(-c2ccc(F)cc2)c(C)[nH]1`, the melting point is greater than 250 °C. `CC(C)OC(CC#N)=NC#N` displayed a melting point of 66.5 °C. As for `O=S(=O)(NN1CCCCC1)c1ccc(S)cc1`, the melting point stood at 93 °C. Turning to `O=C(NCc1ccccn1)c1cc(OCC(F)(F)F)ccc1OCC(F)(F)F`, the melting point fell in the range of 100 to 103 °C. As for `CN(CCN1CCN(Cc2ccc(C(F)(F)F)cc2)CC1)C[C@@]1(C)Cn2cc([N+](=O)[O-])nc2O1`, the figure is 102 to 104 °C; as for `COC(=O)C(c1ccc(O)cc1)N1CC(NC(=O)Cc2ccccc2)C1=O` (centres undefined), 172 to 175 °C.

Consider `N#CC1=C(c2ccccc2)Nc2n[nH]cc2C1c1cccc(Cl)c1Cl` (centres undefined), for which the melting point amounted to 162 °C. As for `NC(=O)c1cccc(OCc2ccc(Br)cc2)c1`, the figure is 160 to 161 °C. In turn, `O=C(N[C@H]1CC[C@H](CCN2CCN(c3nccc4c3OCC4)CC2)CC1)c1ccc(-n2cccn2)cc1` came in with a melting point of 226 °C. Consider `CCOC(=O)c1c(SCC)cc(C(F)(F)F)nc1C(F)(F)F`, for which the melting point is 36 to 37.5 °C. In turn, `CCNC(=O)Nc1nc2cc(-c3ccc(OC)nc3)ccn2n1` gave a melting point of 230 to 233 °C.

In the case of `CC1CN(c2ccc(-c3[nH]nc4c3C(=O)c3c(NC(=O)NN5CCOCC5)cccc3-4)cc2)CCN1` (centres undefined), the melting point came to 230 °C. In turn, `COc1cccc(N(CCN2CCC(C(=O)c3ccc(F)cc3)CC2)C(=O)c2ccc(N)cc2)c1` registered a melting point of 126 to 128 °C. Molecule `CC1Cc2ccc(Cl)cc2C(c2ccc([N+](=O)[O-])cc2)=NN1C(=O)C(F)(F)F` (centres undefined) displayed a melting point of 150 to 152 °C. With `O=C1C=CC(=O)N1c1ccc2c3c(cccc13)-c1ccccc1-2`, the melting point lay within 185 to 186 °C.

`CCCCCCCCCCc1ccc(C[N+](=O)[O-])cc1`: the melting point is 50 °C. The molecule `CC(C)(CCl)C(=O)N(O)Cc1ccccc1Br` gave a melting point of 119 to 121 °C. As for `OC(CNC1=NCCN1)c1ccc(Cl)c(Cl)c1` (centres undefined), the melting point was 148 °C. For `Cc1ccc(C(=O)C#CCO)cc1`, the melting point stood at 74 °C.
